The subject of experiment [1] is Human epithelial lung carcinoma cell line A549. Description: Cell based assay for measuring eicosanoid selectivity (rhIL-1β-induced PGE2, EIA). To be noted: A549 cells, rhIL-1β 0.1 ng/mL, approximately 18 hours, read-out: IC50, inhibition of PGE2 formation. Here is the method: Human epithelial lung carcinoma cell line A549 is obtained from ATCC (CCL-185) and maintained in cell growth medium (Kaighn's F12 cell culture medium+10% fetal bovine serum (FBS)), under standard 5% CO2 humidified atmosphere at 37° C. The cells are passaged at 1:3 twice per week.
For the assays, cells are harvested from flasks by washing once with phosphate buffered saline (PBS), then once with Trypsin-EDTA. After 3-5 minutes at 37° C., the cells are suspended in cell growth medium and centrifuged at 2,000 rpm, 25° C., for 5 minutes. The supernatant is aspirated and the cell pellet is re-suspended in cell growth medium. The cell number is determined by counting an aliquot of cells which has been diluted in PBS and Trypan blue on a hemocytometer. Cells are plated at 40,000/well in 96 well Falcon plates 24 hours prior to treatment. Compounds are diluted in DMSO to 100× of the final concentration in Screen Mates tubes. The medium is removed from the cells and fresh medium (90 μL/well) is added to the cells. The compounds are added at 1 μL/well, n=2, to give seven concentrations each. Cells are pretreated with compounds for 30 minutes at 37° C., 5% CO2. […] After approximately 90-120 minutes at room temperature on an orbital shaker at 100 rpm, the plates are read at A412 on a plate reader. […]

In experiment [2] the test system is human whole blood. Put plainly: Human whole blood assay (LPS-induced PGE2, LC/MS/MS). The note with it: LPS 100 μg/mL, 20-24 hours, n=6, read-out: IC50, inhibition of PGE2 formation. It counts as cell-based. The procedure: Blood is collected from normal volunteer donors into sodium heparin VACUTAINER tubes. Donors are selected, in part, on their confirmation that they have not taken NSAIDs, aspirin, Celebrex®, or glucocorticoids within two weeks of the donation. All tubes/donor are pooled into 250 mL Corning conical centrifuge tubes and 436.5 μL/well is distributed into deep well polypropylene plates. Compounds are diluted in DMSO to 100× final and 4.5 μL/well in duplicate or triplicate is added to give 7 point curves. […] One hundred microliters is quantitatively transferred to Costar cluster tubes blocks and 400 μL/well of the methanol stop reagent and internal standards, d4-PGE2, d4-PGF2α, and […] are added. […]
Solid phase extraction is performed using Waters HLB 30 mg/bed 96 well plates on a vacuum manifold: Step 1, the matrix is washed with methanol (1 mL), followed by 0.1% formic acid in water (1 mL); Step 2, 400 μL sample is applied along with 0.1% formic acid in water (900 μL) and allowed to bind for 5 minutes; Step 3, the matrix is washed with 0.1% formic acid in water (600 μL), followed by 80/20 water/methanol (600 μL); Step 4, the products are eluted with 2-500 μL volumes of EtOAc; Step 5 the samples are dried under nitrogen and reconstituted in 75/25 water/acetonitrile with 0.1% formic acid (50 μL). The products are analyzed by LC/MS/MS.

As a reminder, the IC50 is the concentration at which inhibition is half-maximal. For the molecule `Cc1cccc2ccc(N3CCC(C(=O)N[C@H]4CCC[C@H]4CCc4ccccc4C(=O)O)CC3)nc12` [Example 1, 2-(2-((1S,2S)-2-(1-(8-Methylquinolin-2-yl)piperidine-4-carboxamido)cyclopentyl)ethyl)benzoic acid], the IC50 amounted to 5.3 nM in experiment [1] and 5.9 ± 3.4 nM in experiment [2].
